Measurements taken from patent publication US7273845B2, “Polymeric prodrugs of vancomycin” (priority 2002, dated 2007).

Legend:
[1] = test system: S. aureus (6538P); assay: Minimum Inhibitory Concentration (MIC), S. aureus (6538P); format: cell-based; conditions: vancomycin equivalents
[2] = test system: Staphylococcus aureus (Smith); assay: LD90-100 examination, compound given after S. aureus (Smith) challenge, survival; format: in vivo, ICR Swiss mice; conditions: 100 mg/kg vancomycin equivalents in two equal split doses 1 and 2.5 h following LD90-100 S. aureus (Smith) inoculation; survival after 1 week
Experimental: Studies examining the in vivo anti-infective potential of PEG-vancomycin conjugates in ICR Swiss mice were performed. […] As controls, S. aureus (Smith) challenged mice were administered either saline or 100 mg/kg vancomycingiven in equal split doses. Ten mice were used per compound tested.

[3] = Circulatory pharmacokinetics after single intravenous dose in rats; conditions: for Vss: 50 mg/kg
Experimental: PEG-vancomycin conjugates containing a 50 mg/kg vancomycin equivalent dose and 50 mg/kg native vancomycin (1) were injected as a single intravenous dose into the tail vein of conscious rats at a rate of 0.5 ml/min [˜2.5 min]. […] A 250 μL bled was done on rats sedated with 30% O2/70% CO2 via the retro-orbital plexus into EDTA containing vials. Blood was immediately processed for plasma and frozen on dry ice. Plasma samples were stored at −80° C. until analyzed. The plasma samples were analyzed by a fluorescence polarization immunoassay using an Abbott Laboratories TDx analyzer within two hours of thawing. A single compartment model using WinNonlin™ software was used to determine the-plasma pharmacokinetic parameters.

[4] = test system: E.coli (25922); assay: Minimum Inhibitory Concentration (MIC), E.coli (25922); format: cell-based; conditions: vancomycin equivalents
[5] = test system: S. aureus (29214); assay: Minimum Inhibitory Concentration (MIC), S. aureus (29214); format: cell-based; conditions: vancomycin equivalents
[6] = test system: E. faecalis (29212); assay: Minimum Inhibitory Concentration (MIC), E. faecalis (29212); format: cell-based; conditions: vancomycin equivalents
[7] = test system: S. aureus (Smith); assay: Sustained anti-infective protection, compound given before LD90-100 S. aureus (Smith) challenge, survival; format: in vivo, ICR Swiss mice
Experimental: A second study was also performed to examine the sustained anti-infective protection of PEG-vancomycin conjugate 22. ICR Swiss mice were administered with either 100 mg/kg vancomycin equivalents of 22, 100 mg/kg vancomycin, or saline in two equally split doses 1½ hours apart. Ten mice per treatment group were used.

[8] = 50 mg/kg vancomycin equivalents i.v.
[9] = intravenous bolus 50 mg/kg vancomycin equivalents, plasma

## vancomycin [Compound 1]
[1]
  MIC S. aureus (6538P): 1.6 µg/mL
[2]
  Post Challenge % Survival (mice): 100%
[3]; [8]
  Cmax: 162 µg/mL
  area under the curve (AUC): 78800 ng·h/mL
  circulatory half-life (t1/2): 20.4 min
  clearance (CL): 10.7 mL/min/kg
[3]; [9]
  AUC: 78800 ± 10800 ng·h/mL
  CL: 10.7 ± 1.4 mL/min/kg
  Cmax: 162.0 ± 9.0 µg/mL
  Plasma Half-life: 20.4 ± 2.4 min
  Vss: 0.3093 ± 0.0172 L/kg
[3]; intravenous bolus 50 mg/kg vancomycin equivalents, plasma, listed as Vancomycin
  Vss: 0.309 L/kg
[4]
  MIC E.coli (25922): >100 µg/mL
[5]
  MIC S. aureus (29214): 3.1 µg/mL
[6]
  MIC E. faecalis (29212): 6.2 µg/mL
[7]; 100 mg/kg vancomycin equivalents given before challenge, ICR Swiss mice
  anti-microbial protection against later S. aureus challenge (in words): no protection
[7]; 100 mg/kg vancomycin equivalents in two split doses 1½ h apart, given prior to LD90-100 S. aureus (Smith) challenge, survival after 1 week
  Pre-Challenge % Survival (mice): 0%
